Source: publication PMC11679574, “Intestinal Cells-on-Chip for Permeability Studies” (Micromachines, 2024)
Where two headings read alike, the source gives them in different places.

What was measured:
[1] = tested on: glucuronosyltransferases (UGTs); assay: Phase II metabolism of 7-hydroxycoumarin in enteroid monolayers, chip system; assay type: in vitro ADME, human; settings: enteroids, 12 µM
Experimental: To add the culture disc with cells into the system, it was transferred to a biosafety cabinet, the chips were opened from the top and the discs were added to the chip, after which they were closed using a twisting cap mechanism. Sufficient medium was added to the chip to ensure no air bubbles were trapped during this procedure. Flow speed was adjusted to 17 µL/min and the system was placed back into a cell culture incubator (37 °C, 5% CO2). After a short period of equilibration, transport medium (with/without compound of interest) was added to apical and basolateral reservoirs, with the basolateral medium containing 4% BSA. The medium volumes in the reservoirs depended on the duration of the experiment and the sample volumes required but were between 5 and 6.5 mL. To completely replace the medium inside the tubing and chip with fresh transport medium, the system was run without medium recirculation for 30 min prior to the start of measurements. Details on the permeability measurements are described below. […]
(§1) For quantification, a standard of parental compounds and metabolites was prepared in the same medium as samples. […] A limit of quantification (LOQ) was determined for each compound based on the standard curve and a limit of detection (LOD) was determined based on a noise signal. […] Recovery was calculated as the percentage of original dose added to the system.

[2] = tested on: glucuronosyltransferases (UGTs); assay: Phase II metabolism of 7-hydroxycoumarin in enteroid monolayers, static Transwell; assay type: in vitro ADME, human; settings: enteroids, 12 µM
Experimental: (§2) For specific inhibition, 5 µM elacridar and 5 µM ketoconazole (both Sigma-Aldrich, Zwijndrecht, The Netherlands) were used. The drug cocktail was added to the apical medium reservoirs of chip experiments (flow) and the apical insert of static Transwell inserts. Inhibitors were added to both apical dose solution and basolateral transport buffer. During experiments, samples were collected at different timepoints from both apical and basolateral medium reservoirs, mixed with equal volume of ultrapure MeOH and stored at −20 °C until analysis by LC-MS/MS.
(§3) For quantification, a standard of parental compounds and metabolites was prepared in the same medium as samples. Metabolites included were 1’-hydroxymidazolam (Sigma-Aldrich) and 7-hydroxycoumarin glucuronide (LGC Standards, OLY, UK). Both standard and samples were centrifuged for 10 min at 1500× g to precipitate protein, and subsequently, 1 µL was injected. […] A limit of quantification (LOQ) was determined for each compound based on the standard curve and a limit of detection (LOD) was determined based on a noise signal. For each experiment, corresponding dose and blanks were included in measurements. Recovery was calculated as the percentage of original dose added to the system.
(§4) All static control experiments were performed in cell monolayers cultured on transparent Transwell inserts (Corning, Life Sciences BV, Amsterdam, The Netherlands). […]

[3] = no reference given; cited from earlier work
[4] = Permeability in cell-on-chip system under laminar flow, enteroid monolayers; settings: human
Experimental: (§5) To add the culture disc with cells into the system, it was transferred to a biosafety cabinet, the chips were opened from the top and the discs were added to the chip, after which they were closed using a twisting cap mechanism. Sufficient medium was added to the chip to ensure no air bubbles were trapped during this procedure. Flow speed was adjusted to 17 µL/min and the system was placed back into a cell culture incubator (37 °C, 5% CO2). After a short period of equilibration, transport medium (with/without compound of interest) was added to apical and basolateral reservoirs, with the basolateral medium containing 4% BSA. The medium volumes in the reservoirs depended on the duration of the experiment and the sample volumes required but were between 5 and 6.5 mL. To completely replace the medium inside the tubing and chip with fresh transport medium, the system was run without medium recirculation for 30 min prior to the start of measurements. Details on the permeability measurements are described below.
(§6) Leakage to the basolateral medium was determined using the BioTek Synergy H1 microplate reader (BioSPX, Abcoude, The Netherlands). […] Apparent permeability values (Papp) were calculated according to Equation (1):(1) Papp=dQ/dt×(1/A×C0) in which dQ/dt is the amount of drug transported over the barrier (ng/sec), A is the exposed area of the cell monolayer (cm^2) and C0 is the initial dose concentration of the compound (ng/mL). All measurements were performed under flow (17 µL/min), and the chip system was inside a cell culture incubator (37 °C, 5%CO2) during the entire experiment, as described in Section 2.6.
(§7) Apical and basolateral medium reservoirs were sampled at t = 0, 1, 2 and 4 h. All measurements were performed under flow (17 µL/min), and the chip system was inside a cell culture incubator (37 °C, 5% CO2) during the entire experiment, as described in Section 2.6.
as §2, §1

[5] = in vitro; settings: human
Experimental: as §6, §7, §2, §3
(§8) All static control experiments were performed in cell monolayers cultured on transparent Transwell inserts (Corning, Life Sciences BV, Amsterdam, The Netherlands). Procedures for seeding and culturing were exactly the same as previously reported. […] The only difference was in the volume of apical (100 µL) and basolateral (600 µL) compartment, which was accounted for in Papp calculations. All measurements were performed inside a cell culture incubator (37 °C, 5% CO2).

[6] = Compound recovery, cell-on-chip system; assay type: in vitro ADME; settings: human, read-out: Recovery, percentage of original dose
[7] = target: CYP3A4 (Homo sapiens, UniProt P08684); assay: Phase I metabolism of midazolam in enteroid monolayers, static Transwell; settings: enteroids, static Transwell cultures
Chain of CYP3A4 (P08684 whole entry): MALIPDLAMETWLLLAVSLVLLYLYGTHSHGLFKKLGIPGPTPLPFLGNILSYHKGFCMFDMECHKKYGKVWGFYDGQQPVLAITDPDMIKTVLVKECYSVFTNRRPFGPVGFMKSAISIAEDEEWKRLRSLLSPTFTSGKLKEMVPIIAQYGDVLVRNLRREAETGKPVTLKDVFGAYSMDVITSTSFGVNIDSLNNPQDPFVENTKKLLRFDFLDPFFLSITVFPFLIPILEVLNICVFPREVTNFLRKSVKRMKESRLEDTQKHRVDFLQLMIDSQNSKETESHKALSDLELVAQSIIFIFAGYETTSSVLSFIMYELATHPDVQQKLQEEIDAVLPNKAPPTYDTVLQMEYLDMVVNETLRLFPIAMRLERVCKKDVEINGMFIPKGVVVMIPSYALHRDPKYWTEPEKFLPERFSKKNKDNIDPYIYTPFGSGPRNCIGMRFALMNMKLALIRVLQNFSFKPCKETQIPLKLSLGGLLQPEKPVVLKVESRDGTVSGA
Experimental: as §2, §3, §4

[8] = tested on: enteroid monolayers; assay: Permeability in cell-on-chip system under laminar flow, enteroid monolayers
Experimental: as §5, §6, §7, §2, §1

[9] = tested on: enteroid monolayers; assay: in vitro
Experimental: as §6, §7, §2, §3, §8

[10] = tested on: Caco-2 monolayers; assay: Permeability in static Transwell inserts, Caco-2 monolayers; assay type: in vitro ADME, human; settings: static culture, intact Caco-2 monolayer
Experimental: Leakage to the basolateral medium was determined using the BioTek Synergy H1 microplate reader (BioSPX, Abcoude, The Netherlands). FD4 was measured with an excitation/emission wavelength of 485 nm and 528 nm, and CB was measured at 365 nm and 412 nm, respectively. Apparent permeability values (Papp) were calculated according to Equation (1):(1) Papp=dQ/dt×(1/A×C0) in which dQ/dt is the amount of drug transported over the barrier (ng/sec), A is the exposed area of the cell monolayer (cm^2) and C0 is the initial dose concentration of the compound (ng/mL).
All static control experiments were performed in cell monolayers cultured on transparent Transwell inserts (Corning, Life Sciences BV, Amsterdam, The Netherlands). […] The only difference was in the volume of apical (100 µL) and basolateral (600 µL) compartment, which was accounted for in Papp calculations. All measurements were performed inside a cell culture incubator (37 °C, 5% CO2).

O=c1ccc2ccc(O)cc2o1 [7OH-coumarin, 7-hydroxycoumarin]
7-hydroxycoumarin glucuronide formation [1]: confirm UGT activity
7-hydroxycoumarin glucuronide formation [2]: confirm UGT activity

Cc1cc(=O)n(-c2ccccc2)n1C [Antipyrine, antipyrine]
fraction absorbed (Fa) [3]: 100%

CC(C)NCC(O)COc1ccc(CC(N)=O)cc1 (stereo not drawn) [Atenolol, atenolol]
fraction absorbed (Fa) [3]: 50%

CN(C)C(=N)N=C(N)N [Metformin, metformin]
Papp A→B [4]: 4.6 ×10⁻⁶ cm/s
Papp A→B [5]: 1.44 ×10⁻⁶ cm/s

Cc1ncc2n1-c1ccc(Cl)cc1C(c1ccccc1F)=NC2 [Midazolam, midazolam]
recovery at 10 µM ([6]; chips containing translucent membranes): 41%
recovery at 10 µM ([6]; chips with transparent membranes): 11%
OH-midazolam formation ([7]; in the presence of ketoconazole 5 µM): absent
OH-midazolam formation ([7]; midazolam 10 µM): increase in OH-midazolam over time

CC(C)c1nc(N(C)S(C)(=O)=O)nc(-c2ccc(F)cc2)c1/C=C/[C@@H](O)C[C@@H](O)CC(=O)O [Rosuvastatin, rosuvastatin]
Papp A→B [4]: 1.11 ×10⁻⁶ cm/s
Papp (in words) ([8]; enteroids, chip experiments, drug cocktail, 10 µM): low
Papp A→B [5]: 0.7 ×10⁻⁶ cm/s
Papp (in words) [9]: low

Cascade Blue [CB]
Overall permeation compared to FD4 ([8]; chip system, overall over cell types and membranes): approximately 2 fold
Papp ([9]; static culture, intact enteroid monolayer): 0.08 ·10^−6 cm/s
Papp [10]: 0.5 ·10^−6 cm/s

Dextran-FITC 4 kDa [FD4]
Papp A to B, Static [9]: 1e-08 cm/s
